Assay results taken from US20080051454A1, “Compositions and methods for transient receptor potential vanilloid (TRPV) channel mediated treatments” (The Board of Trustees Operating Michigan State University, priority 2006, published 2008).
Blank lines part the entries; values can stand above or below the molecule they belong to.

What was measured:
[1] = test system: rats; test: Mean arterial pressure before and after left renal pelvis perfusion (LRPP) treatments; format: in vivo, rat; conditions: for Mean arterial pressure, Treatment: after treatment; for Mean arterial pressure, Baseline: before treatment
From the text: Urine flow rate (V, FIG. 3a) and urinary sodium excretion (UNaV, FIG. 3b) of the contralateral kidney are shown (n=5-6 in each group). +vs baseline and all other groups, +p<0.05.

[2] = test system: hearts of WT mice; test: Langendorff perfused heart, ischemia and reperfusion (I/R) with OLDA, wild type; design: species or system mouse; conditions: antagonist 1×10^−6 M
Procedure: The following measurements were made on the two types of heart tissue: left ventricular end-diastolic pressure (LVEDP), left ventricular developed pressure (LVDP), coronary flow (CF), and left ventricular (LV) peak positive rate of pressure change/rate of time change (+dP/dt) were evaluated after I/R.

[3] = test system: TRPV1−/− hearts; test: Preconditioning (PC) protection against I/R in Langendorff hearts with receptor antagonists, TRPV1-null; design: species or system mouse; conditions: CAPZ 10^−7 M, CGRP8-37 10^−6 M, RP67580 10^−7 M
Procedure: Male TRPV1 gene knockout (TRPV1-/-) strain B6.129S[…][…]^tm1Jul and matching control wild type (WT) strain C57BL/6J mice were used (Jackson Laboratory, Bar Harbor, Me.). Mice were heparinized (500 U/kg i.p.) and anesthetized with pentobarbital sodium (50 mg/kg i.p.). […] The distal end of the catheter was connected to a […] Performance Analyzer via a pressure transducer. Coronary flow (CF) was continuously measured using an ultrasonic flow probe placed in the aortic perfusion line. Hearts were paced at 400 bpm except during ischemic PC and sustained global ischemia to avoid inducing excessive ventricular tachyarrhythmia during reperfusion, and pacing was reinitiated 2 minutes after reperfusion. Left ventricular developed pressure (LVDP, peak systolic minuses LVEDP) and LV peak positive […]) during isovolumic contraction were used as indices of LV systolic function; LVEDP and the peak negative […] used as indices of LV diastolic function. […] Non-preconditioned hearts were time-matched perfused with the same duration as that of preconditioned hearts. Group 1: Controls. As normal controls (nonischemic), WT and TRPV1-/- hearts were perfused for 130 minutes. For I/R controls, WT and TRPV1-/- hearts were first perfused with Krebs-Henseleit buffer for 55 min (time-matched perfusion of the equilibration period plus the PC period), and subsequently subjected to 30 minutes of no-flow normothermic global ischemia followed by 40-minutes of reperfusion. Group 2: PC. […] The hearts were subjected to 30 minutes of no-flow normothermic global ischemia followed by 40-minutes of reperfusion as that of I/R control groups. Group 3: PC plus capsazepine (CAPZ). […] Two additional concentrations of CAPZ, 10^-6M and 10^-8 M, were used in WT hearts. An additional drug control was added. After a 20-minute equilibration period, WT hearts were perfused with CAPZ (10^-7 M) for 10 minutes without PC, followed by perfusion with Krebs-Henseleit buffer for 25 minutes (time-matched perfusion of the PC period) and then subjected to I/R. Group 4: […] […]

[4] = test system: male Wistar rats; test: Depressor effect of 20-HETE analog DSR given IV, with or without antagonists; format: in vivo, rat; conditions: DSR 1 mg/kg with CAPZ 3 mg/kg, RP67580 4 mg/kg or CGRP 8-37 3 mg/kg
[5] = test system: WT hearts; test: Preconditioning (PC) protection against I/R in Langendorff hearts with receptor antagonists, wild type; design: species or system mouse
Procedure: Male TRPV1 gene knockout (TRPV1-/-) strain B6.129S[…][…]^tm1Jul and matching control wild type (WT) strain C57BL/6J mice were used (Jackson Laboratory, Bar Harbor, Me.). Mice were heparinized (500 U/kg i.p.) and anesthetized with pentobarbital sodium (50 mg/kg i.p.). […] The distal end of the catheter was connected to a […] Performance Analyzer via a pressure transducer. Coronary flow (CF) was continuously measured using an ultrasonic flow probe placed in the aortic perfusion line. Hearts were paced at 400 bpm except during ischemic PC and sustained global ischemia to avoid inducing excessive ventricular tachyarrhythmia during reperfusion, and pacing was reinitiated 2 minutes after reperfusion. Left ventricular developed pressure (LVDP, peak systolic minuses LVEDP) and LV peak positive […]) during isovolumic contraction were used as indices of LV systolic function; LVEDP and the peak negative […] used as indices of LV diastolic function. […] Non-preconditioned hearts were time-matched perfused with the same duration as that of preconditioned hearts. Group 1: Controls. As normal controls (nonischemic), WT and TRPV1-/- hearts were perfused for 130 minutes. For I/R controls, WT and TRPV1-/- hearts were first perfused with Krebs-Henseleit buffer for 55 min (time-matched perfusion of the equilibration period plus the PC period), and subsequently subjected to 30 minutes of no-flow normothermic global ischemia followed by 40-minutes of reperfusion. Group 2: PC. […] The hearts were subjected to 30 minutes of no-flow normothermic global ischemia followed by 40-minutes of reperfusion as that of I/R control groups. Group 3: PC plus capsazepine (CAPZ). […] Two additional concentrations of CAPZ, 10^-6M and 10^-8 M, were used in WT hearts. An additional drug control was added. After a 20-minute equilibration period, WT hearts were perfused with CAPZ (10^-7 M) for 10 minutes without PC, followed by perfusion with Krebs-Henseleit buffer for 25 minutes (time-matched perfusion of the PC period) and then subjected to I/R. Group 4: […] Two additional concentrations of CGRP8-37, 10^-5 M and 10^-7 M, were used in WT hearts. An additional drug control of CGRP8-37 was added as that of the CAPZ control group. Group 5: PC plus RP67580. To determine the role of endogenous SP during PC, hearts from WT and TRPV1-/-mice were perfused as that of CAPZ with RP67580 (10^-7 M), a selective neurokinin-1 (NK1) receptor antagonist. Two additional concentrations of RP67580, 10^-6 M and 10^-8 M, were used in WT hearts. An additional drug control of RP67580 was added as that of the CAPZ control group.

[6] = test system: WT hearts; test: Lactate dehydrogenase (LDH) release during I/R; design: species or system mouse
Procedure: Lactate dehydrogenase (LDH) release: In addition to the measurement of cardiac function, cardiac injury was assessed by measuring LDH release. Perfusion effluent was collected during the first 10 minutes to 20 minutes of I/R and stored at […] until analyzed. Total LDH levels were determined with the use of a CytoTox 96 assay (Promega). The data were expressed as absorbance units released per milliliter per minute per gram of heart wet tissues (Turnbull et al., Am J Physiol Heart Circ Physiol 290: […]-9, 2006; herein incorporated by reference).

[7] = test system: Wistar rats (Con-NS, Con-HS, Cap-NS, Cap-HS); test: Natriuretic, diuretic and depressor effects of i.v. diuretics in control and capsaicin-pretreated rats on normal or high sodium diet; format: in vivo, rat; conditions: intravenous
Procedure: (a) Urine flow rate. (b) Urine sodium excretion. […] (c) Mean arterial pressure. […] Vehicle; trichlormethiazide.
(a) Urine flow rate. (b) Urine sodium excretion. […] (c) Mean arterial pressure.
(a) Urine flow rate. (b) Urine sodium excretion. […] (c) Mean arterial pressure. […] Vehicle; amiloride.
Design and methods Neonatal Wistar rats were treated with capsaicin or vehicle. Seven-week-old male rats were treated for 2 weeks with: vehicle plus a normal (Con-NS) or high (Con-HS) sodium diet, and capsaicin pretreatment plus a normal (Cap-NS) or high (Cap-HS) sodium diet. Mean arterial pressure (MAP), renal excretory function, and protein expression determined by Western blot were performed.

SMILES: [Cl-].[K+] [150 KCl, KCl]
- Mean arterial pressure, Treatment [1]: 125 ± 4 mmHg
- Mean arterial pressure, Baseline [1]: 123 ± 6 mmHg

SMILES: [Cl-].[Na+] [600 mM NaCl, NaCl]
- Mean arterial pressure, Treatment [1]: 117 ± 2 mmHg
- Mean arterial pressure, Baseline [1]: 115 ± 2 mmHg

SMILES: OC[C@@H](O)[C@@H](O)[C@H](O)[C@H](O)CO [1200 mOsm Mannitol, Mannitol]
- Mean arterial pressure, Treatment [1]: 121 ± 7 mmHg
- Mean arterial pressure, Baseline [1]: 121 ± 6 mmHg

- effect on these parameters in TRPV1−/− hearts [3]: no effect
- effect on cardiac function in WT hearts without I/R [5]: no effect on cardiac function
- effect on PC-induced cardiac protection (LVEDP, LVDP, CF, +dP/dt, −dP/dt) in WT hearts ([5]; CAPZ 10^−7 M, CGRP8-37 10^−6 M, RP67580 10^−7 M): abolished
- effect on CF in WT hearts ([5]; PC plus I/R): no effect on CF
- effect on PC protection assessed by LDH levels after I/R in WT hearts [6]: abolished
SMILES: COc1ccccc1CC(=N)N1C[C@@H]2C(=O)CCC(c3ccccc3)(c3ccccc3)[C@@H]2C1 [RP67580]
- effect on protective effect of OLDA in WT hearts [2]: abolished
- DSR induced-depressor effect after antagonist [4]: 9.4±2.3 mmHg

SMILES: N=C(N)NC(=O)c1nc(Cl)c(N)nc1N [amiloride]
- effect on MAP (words) [7]: no effect on MAP in any group
- time of peak urine flow rate (UFR) after injection [7]: 10 min
- urine flow / urine sodium excretion (words) [7]: significantly increased
- effect on MAP (words) ([7]; listed as Amiloride): no effect
- urine flow / urine sodium excretion (words) ([7]; listed as Amiloride): no effect
